pIC50: −log10 of the molar value. Counter-ions that a name gives are not always drawn.
Legend:
Assay type in all cases: cell-based
human PiT-1 = molecular target: T1, human PiT-1 (Homo sapiens, UniProt Q8WUM9); test: Inhibitory effect on 33PO4 uptake into human PiT-1-expressing CHO cells; details: compound 0.24, 1.2, 6 or 30 μM, pH 6.5, read-out: IC50 against 33PO4 uptake into human PiT-1-expressing cells
T1 construct: expressed in transfected cells; host or cells: CHO cells
T1 sequence (Q8WUM9 1-679): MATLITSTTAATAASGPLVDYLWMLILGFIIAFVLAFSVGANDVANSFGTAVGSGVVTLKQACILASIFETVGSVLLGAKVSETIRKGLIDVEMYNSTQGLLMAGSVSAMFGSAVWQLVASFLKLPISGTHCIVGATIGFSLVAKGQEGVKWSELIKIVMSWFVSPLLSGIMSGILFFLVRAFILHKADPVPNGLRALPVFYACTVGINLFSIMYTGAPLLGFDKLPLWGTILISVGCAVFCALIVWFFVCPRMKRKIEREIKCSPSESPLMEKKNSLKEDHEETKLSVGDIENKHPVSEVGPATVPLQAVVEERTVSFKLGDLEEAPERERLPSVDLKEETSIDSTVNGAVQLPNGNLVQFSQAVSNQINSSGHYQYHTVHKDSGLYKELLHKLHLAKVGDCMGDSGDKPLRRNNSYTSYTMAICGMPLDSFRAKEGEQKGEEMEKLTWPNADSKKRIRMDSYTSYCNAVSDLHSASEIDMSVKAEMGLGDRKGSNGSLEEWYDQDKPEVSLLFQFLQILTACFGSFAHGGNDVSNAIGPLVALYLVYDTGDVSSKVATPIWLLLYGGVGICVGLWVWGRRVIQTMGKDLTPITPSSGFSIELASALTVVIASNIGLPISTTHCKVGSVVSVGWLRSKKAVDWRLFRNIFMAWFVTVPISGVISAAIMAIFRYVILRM
Description: Test Example 3: Inhibitory Effect on ^33PO4 Uptake into Human PiT-1-Expressing Cell
(§1) CHO cells were transfected with human PiT-1 expression plasmids or empty vectors to prepare human PiT-1-expressing cells and empty vector-expressing cells. The human PiT-1-expressing cells or the empty vector-expressing cells were inoculated to a 96-well plate and incubated overnight in a CO2 incubator. […] After a given time, a 1/20 volume of buffer A containing ^33PO4 was added thereto and reacted at room temperature. After washing with ice-cold buffer A, a liquid scintillator was added to each reaction mixture, and the amount of ^33PO4 uptake was measured using TopCount. The rate of inhibition was determined according to the following expression: Rate (%) of inhibition=(1−(Amount of ^33PO4 uptake in the compound-supplemented well containing the human PiT-1-expressing cells−Amount of ^33PO4 uptake in the compound-supplemented well containing the empty vector-expressing cells)/(Amount of ^33PO4 uptake in the DMSO-supplemented well containing the human PiT-1-expressing cells −Amount of ^33PO4 uptake in the DMSO-supplemented well containing the empty vector-expressing cells))×100

human NaPi-IIb = molecular target: T2, human NaPi-IIb (Homo sapiens, UniProt O95436); test: Inhibitory effect on 33PO4 uptake into human NaPi-IIb-expressing CHO cells; details: read-out: IC50
T2 construct: expressed in transfected cells
T2 sequence (O95436 1-690): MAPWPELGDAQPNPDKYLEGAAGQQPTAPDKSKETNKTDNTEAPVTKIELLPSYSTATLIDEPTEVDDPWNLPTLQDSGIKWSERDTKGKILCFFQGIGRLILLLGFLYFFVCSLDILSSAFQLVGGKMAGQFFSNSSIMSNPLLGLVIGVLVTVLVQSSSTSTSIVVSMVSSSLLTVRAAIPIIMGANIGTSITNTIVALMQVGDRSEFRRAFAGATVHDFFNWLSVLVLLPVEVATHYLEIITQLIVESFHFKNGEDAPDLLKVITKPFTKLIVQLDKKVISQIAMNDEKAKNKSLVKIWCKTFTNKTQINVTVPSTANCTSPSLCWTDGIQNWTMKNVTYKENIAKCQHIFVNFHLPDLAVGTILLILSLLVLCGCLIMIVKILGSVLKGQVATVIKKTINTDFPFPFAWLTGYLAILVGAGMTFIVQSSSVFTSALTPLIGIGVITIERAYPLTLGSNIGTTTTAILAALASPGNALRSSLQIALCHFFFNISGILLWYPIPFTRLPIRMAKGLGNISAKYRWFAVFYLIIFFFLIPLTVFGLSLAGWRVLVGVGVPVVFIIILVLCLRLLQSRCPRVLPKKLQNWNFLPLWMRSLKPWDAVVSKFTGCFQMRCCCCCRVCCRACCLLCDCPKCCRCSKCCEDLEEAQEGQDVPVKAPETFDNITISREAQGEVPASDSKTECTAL
How it was run: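 Uptake of ³³PO4 was measured by scintillation counting after ice-cold buffer A washes. Cells were CHO stably expressing human NaPi-IIb, seeded overnight, and exposed to ³³PO4 in buffer A at room temperature.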

human PiT-2 = molecular target: T3, human PiT-2 (Homo sapiens, UniProt Q08357); test: Inhibitory effect on 33PO4 uptake into human PiT-2-expressing CHO cells; details: pH 6.5, read-out: IC50 against 33PO4 uptake into human PiT-2-expressing cells
T3 construct: expressed in transfected cells; host or cells: CHO cells
T3 sequence (Q08357 1-652): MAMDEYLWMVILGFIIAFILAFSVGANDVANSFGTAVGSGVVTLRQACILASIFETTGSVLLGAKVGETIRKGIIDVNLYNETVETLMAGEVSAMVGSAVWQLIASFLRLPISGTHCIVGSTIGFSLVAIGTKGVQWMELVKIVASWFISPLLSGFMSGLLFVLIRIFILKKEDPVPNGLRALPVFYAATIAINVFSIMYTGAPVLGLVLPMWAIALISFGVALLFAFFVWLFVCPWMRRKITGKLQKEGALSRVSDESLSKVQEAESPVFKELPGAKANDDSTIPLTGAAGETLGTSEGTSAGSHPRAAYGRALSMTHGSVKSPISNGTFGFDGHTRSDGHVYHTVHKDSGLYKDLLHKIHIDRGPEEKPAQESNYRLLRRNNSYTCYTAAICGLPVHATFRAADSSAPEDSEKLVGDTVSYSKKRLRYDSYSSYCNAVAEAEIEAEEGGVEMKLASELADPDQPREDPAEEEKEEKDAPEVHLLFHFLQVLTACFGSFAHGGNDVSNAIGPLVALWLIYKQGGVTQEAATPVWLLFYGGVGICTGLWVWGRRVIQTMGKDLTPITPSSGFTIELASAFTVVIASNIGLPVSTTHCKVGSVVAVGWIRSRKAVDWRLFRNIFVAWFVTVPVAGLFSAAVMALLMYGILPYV
Description: Test Example 4: Inhibitory Effect on ^33PO4 Uptake into Human PiT-2-Expressing Cell
as §1, with “PiT-2” for “PiT-1”, “PiT-2-expressing” for “PiT-1-expressing”

SMILES	pIC50 (human PiT-1)	pIC50 (human NaPi-IIb)	pIC50 (human PiT-2)
C[C@]12CCCN1N(Cc1ccc(OCCN3CCOCC3)c(F)c1F)C(=O)C(C(=O)Nc1ccc(C(F)(F)F)cc1-c1cc(C(F)(F)F)ncn1)=C2O [Example 157, (4aR)-1-[[2,3-Difluoro-4-(2-morpholin-4-ylethoxy)phenyl]methyl]-4-hydroxy-4a-methyl-2-oxo-N-[4-(trifluoromethyl)-2-[6-(trifluoromethyl)pyrimidin-4-yl]phenyl]-6,7-dihydro-5H-pyrrolo [1,2-b]pyridazine-3-carboxamide]	5.42	4.72	5.41
C[C@]12CCCN1N(Cc1ccc(CN3CCOCC3)c(F)c1F)C(=O)C(C(=O)Nc1ccc(C(F)(F)F)cc1-c1ccc(C(F)(F)F)nc1)=C2O [Example 164, (4aR)-1-[[2,3-Difluoro-4-(morpholin-4-ylmethyl)phenyl]methyl]-4-hydroxy-4a-methyl-2-oxo-N-[4-(trifluoromethyl)-2-[6-(trifluoromethyl)pyridin-3-yl]phenyl]-6,7-dihydro-5H-pyrrolo [1,2-b]pyridazine-3-carboxamide; hydrochloride]	5.39	5.30	5.39
C[C@]12CCCN1N(Cc1cccc(Cl)c1F)C(=O)C(C(=O)Nc1cc(F)c(Br)c(F)c1)=C2O [Example 196, (4aR)-N-(4-Bromo-3,5-difluorophenyl)-1-[(3-chloro-2-fluorophenyl)methyl]-4-hydroxy-4a-methyl-2-oxo-6,7-dihydro-5H-pyrrolo[1,2-b]pyridazine-3-carboxamide]	5.25	5.55	5.21
CN1[C@@H](C(C)(C)C)C(O)=C(C(=O)Nc2ccc(C(F)(F)F)cc2-c2cc(C(F)(F)F)ncn2)C(=O)N1Cc1ccc(OCCN2CCOCC2)c(F)c1F [Example 264, (3S)-3-tert-Butyl-1-[[2,3-difluoro-4-(2-morpholin-4-ylethoxy)phenyl]methyl]-4-hydroxy-2-methyl-6-oxo-N-[4-(trifluoromethyl)-2-[6-(trifluoromethyl)pyrimidin-4-yl]phenyl]-3H-pyridazine-5-carboxamide]	5.34	4.71	5.42
CN1[C@@H](C(C)(C)C)C(O)=C(C(=O)Nc2ccc(Cl)cc2-c2ccc(C(F)(F)F)nc2)C(=O)N1Cc1ccc(OCCN2CCOCC2)c(F)c1F [Example 267, (3S)-3-tert-Butyl-N-[4-chloro-2-[6-(trifluoromethyl)pyridin-3-yl]phenyl]-1-[[2,3-difluoro-4-(2-morpholin-4-ylethoxy)phenyl]methyl]-4-hydroxy-2-methyl-6-oxo-3H-pyridazine-5-carboxamide]	5.39	5.12	5.33
CSc1ccc(-c2cc(Cl)ccc2NC(=O)C2=C(O)[C@H](C(C)(C)C)N(C)N(Cc3ccc(OCCN4CCOCC4)c(F)c3F)C2=O)cn1 [Example 269, (3S)-3-tert-Butyl-N-[4-chloro-2-(6-methylsulfanyl-pyridin-3-yl)phenyl]-1-[[2,3-difluoro-4-(2-morpholin-4-ylethoxy)phenyl]methyl]-4-hydroxy-2-methyl-6-oxo-3H-pyridazine-5-carboxamide]	5.10	5.35	4.97
Cc1c(C#N)ncnc1-c1cc(C(F)(F)F)ccc1NC(=O)C1=C(O)[C@H](C(C)(C)C)N(C)N(Cc2ccc(OCCN3CCOCC3)c(F)c2F)C1=O [Example 270, (3S)-3-tert-Butyl-N-[2-(6-cyano-5-methylpyrimidin-4-yl)-4-(trifluoromethyl)phenyl]-1-[[2,3-difluoro-4-(2-morpholin-4-yl-ethoxy)phenyl]methyl]-4-hydroxy-2-methyl-6-oxo-3H-pyridazine-5-carboxamide]	5.47	4.84	5.44
CN1N(Cc2ccc(OCCCCC(=O)O)c(F)c2F)C(=O)C(C(=O)Nc2ccc(C(F)(F)F)cc2-c2cc(C(F)(F)F)ncn2)=C(O)C12CCCC2 [Example 333, 5-[2,3-Difluoro-4-[[10-hydroxy-6-methyl-8-oxo-9-[[4-(trifluoromethyl)-2-[6-(trifluoromethyl)pyrimidin-4-yl]phenyl]carbamoyl]-6,7-diazaspiro[4.5]dec-9-en-7-yl]methyl]phenoxy]pentanoic acid]	5.44	4.71	4.98
COC[C@@H]1CCCN1CCOc1ccc(CN2C(=O)C(C(=O)Nc3ccc(C(F)(F)F)cc3-c3cc(C(F)(F)F)ncn3)=C(O)C3(CCC3)N2C)c(F)c1F [Example 345, 6-[[2,3-Difluoro-4-[2-[(2S)-2-(methoxymethyl)pyrrolidin-1-yl]ethoxy]phenyl]methyl]-9-hydroxy-5-methyl-7-oxo-N-[4-(trifluoromethyl)-2-[6-(trifluoromethyl)pyrimidin-4-yl]phenyl]-5,6-diazaspiro[3.5]non-8-ene-8-carboxamide]	5.92	5.11	5.85

From patent publication US9499553B2 (CHUGAI SEIYAKU KABUSHIKI KAISHA, priority 2013, dated 2016)
